From PMC9939793 (Infection and Drug Resistance, 2023)

How the values were obtained:
[1] = tested on: A(H3N2) PA-I38M isolate (A/Berlin/9/2020); assay type: cell-based, influenza A(H3N2)
[2] = molecular target: neuraminidase of A(H1N1)pdm09-S247N isolate (A/NRW/142/2019) (Influenza A virus, UniProt A0A0X9QTS2, S247N); assay type: biochemical

| SMILES | reduction of antiviral activity [1] | IC50 increase [2] |
| --- | --- | --- |
| COC(=O)OCOc1c2n(ccc1=O)N([C@@H]1c3ccccc3SCc3c1ccc(F)c3F)[C@@H]1COCCN1C2=O [baloxavir marboxil, Baloxavir marboxil] | up to 5 fold | – |
| CCC(CC)[C@H](NC(C)=O)[C@@H]1[C@H](O)[C@@H](C(=O)O)C[C@H]1N=C(N)N [Peramivir, peramivir] | – | up to 7 fold |
| CC(=O)N[C@H]1[C@H]([C@H](O)[C@H](O)CO)OC(C(=O)O)=C[C@@H]1N=C(N)N [Zanamivir, zanamivir] | – | up to 7 fold |
